Measurements reported in ChEMBL document CHEMBL1122998, “New antihistaminic theophylline or theobromine derivatives” (1985).

Legend:
Cavia porcellus [1] = assay: Percent decrease in bronchodilator activity against acetylcholine-induced bronchospasm reaction in guinea pig by intraveneous administration at dose 250 ug/kg; assay type: functional
Rattus norvegicus [2] = assay: Percentage decrease in antiallergic activity against cutaneous reaction to histamine in rat, by oral administration at a dose of 10 mg/kg; assay type: functional
Cavia porcellus [3] = assay: Percentage decrease in bronchodilator activity against serotonin-induced bronchospasm reaction in guinea pig by intraveneous administration at dose 250 ug/kg; assay type: functional
Rattus norvegicus [4] = assay: Percent decrease in antiallergic activity by antigen/antibody reaction assay in rat by oral administration at a dose of 10 mg/kg; assay type: functional
Cavia porcellus [5] = assay: Percent decrease in bronchodilator activity against histamine-induced bronchospasm reaction in guinea pig by intraveneous administration at dose 10.5 ug/kg

| SMILES | Decrease (Cavia porcellus [1]) | Decrease (Rattus norvegicus [2]) | Decrease (Cavia porcellus [3]) | Decrease (Rattus norvegicus [4]) | Decrease (Cavia porcellus [5]) |
| --- | --- | --- | --- | --- | --- |
| COc1ccc(OCCCN2CCN(CCCn3cnc4c3c(=O)n(C)c(=O)n4C)CC2)cc1 | 25% | 0% | 0% | 0% | 60% |
| Cn1cnc2c1c(=O)n(CCCN1CCN(CCCSc3ccc(Cl)cc3)CC1)c(=O)n2C | 27% | 12% | 47% | 17.5% | 0% |
| Cn1c(=O)c2c(ncn2CCCN2CCN(CCCCSc3ccccc3)CC2)n(C)c1=O | 34% | 0% | 24% | 0% | 47% |
| Cn1cnc2c1c(=O)n(CC(O)CN1CCN(CCCSc3ccccc3)CC1)c(=O)n2C (stereo unspecified) | 24% | 10% | 96% | 43% | 66% |
| Cn1c(=O)c2c(ncn2CCCCCCN2CCN(CCCCSc3ccccc3)CC2)n(C)c1=O | 23% | 0% | 23% | 0% | 0% |
| Cn1cnc2c1c(=O)n(CCCN1CCN(CCCOc3ccc(Cl)cc3)CC1)c(=O)n2C | 18% | 12.5% | 30% | 13% | 14% |
| Cn1c(=O)c2c(ncn2CCCN2CCN(CCCOc3ccc(Cl)cc3)CC2)n(C)c1=O | 0% | 0% | 0% | 0% | 30% |
| Cn1cnc2c1c(=O)n(CCCN1CCN(CCCSc3ccccc3)CC1)c(=O)n2C | 10% | 31.5% | 25% | 15% | 56% |
| Cn1c(=O)c2c(ncn2CCCN2CCN(CCCSc3ccc(Cl)cc3)CC2)n(C)c1=O | 0% | 0% | 0% | 0% | 25% |
| Cn1c(=O)c2c(ncn2CC(O)CN2CCN(CC(O)CSc3ccccc3)CC2)n(C)c1=O (stereo unspecified) | 0% | 29% | 0% | 0% | 89% |
| Cn1cnc2c1c(=O)n(CCCN1CCN(CC(O)CSc3ccccc3)CC1)c(=O)n2C (stereo unspecified) | 2% | 0% | 3% | 0% | 25% |
| Cn1c(=O)c2c(ncn2CC(O)CN2CCN(CCOc3ccccc3)CC2)n(C)c1=O (stereo unspecified) | 0% | 56% | 21% | 59% | 76% |
| CN(C)CCC(c1ccc(Cl)cc1)c1ccccn1 (stereo unspecified) [CHLORPHENIRAMINE] | – | 15% | 0% | 0% | 62% |
| Cn1cnc2c1c(=O)n(CC(O)CN1CCN(CCCOc3ccccc3)CC1)c(=O)n2C (stereo unspecified) | 0% | 30% | 50% | 76% | 10% |
| Cn1c(=O)c2c(ncn2CN2CCN(CCCSc3ccccc3)CC2)n(C)c1=O | 0% | 0% | 0% | 0% | 9% |
| Cn1c(=O)c2c(ncn2CC(O)CN2CCN(CCCCOc3ccccc3)CC2)n(C)c1=O (stereo unspecified) | 45% | 0% | 22% | 0% | 82% |
| Cn1c(=O)c2c(ncn2CCC(O)CCN2CCN(CCCSc3ccccc3)CC2)n(C)c1=O (stereo unspecified) | 20% | 38% | 36% | 70% | 35% |

| SMILES | Decrease (Cavia porcellus [1]) | Decrease (Rattus norvegicus [2]) | Decrease (Cavia porcellus [3]) | Decrease (Rattus norvegicus [4]) | Decrease (Cavia porcellus [5]) |
| --- | --- | --- | --- | --- | --- |
| Cn1c(=O)c2c(ncn2CC(O)CN2CCN(CCCSc3ccc(Cl)cc3)CC2)n(C)c1=O (stereo unspecified) | 0% | 67% | 0% | 35% | 24% |
| CN1CCC(=C2c3ccccc3CC(=O)c3sccc32)CC1 [KETOTIFEN] | – | 90% | – | 64% | 10% |
| Cn1c(=O)c2c(ncn2CCCN2CCN(CC(O)CSc3ccccc3)CC2)n(C)c1=O (stereo unspecified) | 0% | 0% | 0% | 0% | 88% |
| Cn1cnc2c1c(=O)n(CC(O)CN1CCN(CCCSc3ccc(Cl)cc3)CC1)c(=O)n2C (stereo unspecified) | 11% | 0% | 8% | 0% | 0% |
| Cn1cnc2c1c(=O)n(CCCN1CCN(CCCOc3ccccc3)CC1)c(=O)n2C | 30% | 0% | 47% | 23% | 28% |
| Cn1c(=O)c2c(ncn2CC(O)CN2CCN(CCCCSc3ccccc3)CC2)n(C)c1=O (stereo unspecified) | 34% | 0% | 0% | 0% | 13% |
| Cc1ccc(SCCCN2CCN(CCCn3cnc4c3c(=O)n(C)c(=O)n4C)CC2)cc1 | 35% | 0% | 24% | 0% | 15% |
| Cn1cnc2c1c(=O)n(CC(O)CN1CCN(CCCOc3ccc(Cl)cc3)CC1)c(=O)n2C (stereo unspecified) | 14% | 24% | 11% | 23% | 19% |
| COc1ccc(OCCCN2CCN(CC(O)Cn3cnc4c3c(=O)n(C)c(=O)n4C)CC2)cc1 (stereo unspecified) | 0% | 0% | 0% | 0% | 27% |
| Cn1c(=O)c2c(ncn2CC(O)CN2CCN(CCCOc3ccccc3)CC2)n(C)c1=O (stereo unspecified) | 23% | 78% | 43% | 94% | 87% |
| Cn1c(=O)c2c(ncn2CC(O)CN2CCN(CCCCSc3ccc(Cl)cc3)CC2)n(C)c1=O (stereo unspecified) | 0% | 0% | 0% | 0% | 0% |
| Cn1c(=O)c2c(ncn2CC(O)CN2CCN(CCCOc3ccc(Cl)cc3)CC2)n(C)c1=O (stereo unspecified) | 0% | 44% | 0% | 22% | 19% |
| Cn1c(=O)c2c(ncn2CCC(=O)N2CCN(CCCSc3ccccc3)CC2)n(C)c1=O | 3% | 0% | 0% | 0% | 2% |
| Cn1c(=O)c2c(ncn2CC(=O)N2CCN(CCCSc3ccccc3)CC2)n(C)c1=O | 16% | 10% | 21% | 15% | 31% |
| COc1cc(OCCCN2CCN(CCCn3cnc4c3c(=O)n(C)c(=O)n4C)CC2)cc(OC)c1OC | 0% | – | 0% | – | 0% |
| COc1ccc(SCCCN2CCN(CCCn3cnc4c3c(=O)n(C)c(=O)n4C)CC2)cc1 | 0% | – | 0% | – | 53% |
| CN(CCCSc1ccccc1)CCN(C)CCCn1cnc2c1c(=O)n(C)c(=O)n2C | 12% | – | 50% | – | 2% |
